Laboratory results taken from ChEMBL document CHEMBL3352159, “Protolichesterinic acid derivatives: α-methylene-γ-lactones as potent dual activators of PPARγ and Nrf2 transcriptional factors” (Bioorg Med Chem Lett, 2014).
pIC50: −log10 of the molar value. Active and inactive are the calls of the source. The calls are words filed in the database; no cut-off is given here.

Experiments:
[1] = Cytotoxicity against human A375M cells after 4 days by MTT assay; assay type: functional, cell-based; details: 96 h
[2] = test system: Peritoneal macrophage cell; assay: Induction of Dectin-1 mRNA expression in mouse peritoneal macrophages isolated from PPARgamma -/- mouse treated at 1 uM for 5 hrs by qRT-PCR analysis; assay type: functional, cell-based
[3] = test system: Peritoneal macrophage cell; assay: Induction of Dectin-1 mRNA expression in mouse peritoneal macrophages isolated from PPARgamma -/- mouse treated at 5 uM for 5 hrs by qRT-PCR analysis; assay type: functional, cell-based
[4] = Cytotoxicity against mouse peritoneal macrophages after 24 hrs; assay type: cell-based; details: Peritoneal macrophage cell
[5] = target: Nuclear factor erythroid 2-related factor 2 (Mus musculus) (UniProt Q60795); assay: Activation of Nrf2 in mouse peritoneal macrophages assessed as increase in HO-1 mRNA expression treated for 5 hrs by qRT-PCR analysis
[6] = target: Nuclear factor erythroid 2-related factor 2 (Mus musculus) (UniProt Q60795); assay: Activation of Nrf2 in mouse peritoneal macrophages assessed as increase in NQO-1 mRNA expression treated for 5 hrs by qRT-PCR analysis
[7] = test system: Peritoneal macrophage cell; assay: Induction of HO-1 mRNA expression in mouse peritoneal macrophages isolated from PPARgamma -/- mouse treated at 1 uM for 5 hrs by qRT-PCR analysis; assay type: functional, cell-based
[8] = target: T1, Peroxisome proliferator-activated receptor gamma (Mus musculus) (UniProt P37238); assay: Activation of PPARgamma in mouse peritoneal macrophages assessed as increase in Dectin-1 mRNA expression treated for 5 hrs by qRT-PCR analysis
T1 sequence (whole entry): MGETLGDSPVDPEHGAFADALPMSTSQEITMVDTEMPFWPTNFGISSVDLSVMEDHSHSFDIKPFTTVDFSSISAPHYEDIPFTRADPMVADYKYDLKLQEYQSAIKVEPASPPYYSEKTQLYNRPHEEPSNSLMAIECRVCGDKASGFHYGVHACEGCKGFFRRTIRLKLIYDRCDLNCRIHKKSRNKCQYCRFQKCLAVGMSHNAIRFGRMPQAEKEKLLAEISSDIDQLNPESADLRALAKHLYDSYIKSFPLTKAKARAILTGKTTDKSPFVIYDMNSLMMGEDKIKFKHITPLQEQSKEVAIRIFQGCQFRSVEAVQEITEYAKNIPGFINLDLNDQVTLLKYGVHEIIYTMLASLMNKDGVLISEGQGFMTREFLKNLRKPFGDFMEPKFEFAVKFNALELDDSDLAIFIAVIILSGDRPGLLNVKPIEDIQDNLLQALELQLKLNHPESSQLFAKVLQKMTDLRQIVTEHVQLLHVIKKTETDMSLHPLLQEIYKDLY

[9] = test system: Peritoneal macrophage cell; assay: Induction of CD36 mRNA expression in mouse peritoneal macrophages isolated from PPARgamma -/- mouse treated at 1 uM for 5 hrs by qRT-PCR analysis; assay type: functional, cell-based
[10] = test system: Peritoneal macrophage cell; assay: Induction of NQO-1 mRNA expression in mouse peritoneal macrophages isolated from PPARgamma -/- mouse treated at 1 uM for 5 hrs by qRT-PCR analysis; assay type: functional, cell-based
[11] = target: T1, Peroxisome proliferator-activated receptor gamma (Mus musculus); assay: Activation of PPARgamma in mouse peritoneal macrophages assessed as increase in CD36 mRNA expression treated for 5 hrs by qRT-PCR analysis

Nuclear factor erythroid 2-related factor 2 (Mus musculus), sequence (Q60795 whole entry, looked up): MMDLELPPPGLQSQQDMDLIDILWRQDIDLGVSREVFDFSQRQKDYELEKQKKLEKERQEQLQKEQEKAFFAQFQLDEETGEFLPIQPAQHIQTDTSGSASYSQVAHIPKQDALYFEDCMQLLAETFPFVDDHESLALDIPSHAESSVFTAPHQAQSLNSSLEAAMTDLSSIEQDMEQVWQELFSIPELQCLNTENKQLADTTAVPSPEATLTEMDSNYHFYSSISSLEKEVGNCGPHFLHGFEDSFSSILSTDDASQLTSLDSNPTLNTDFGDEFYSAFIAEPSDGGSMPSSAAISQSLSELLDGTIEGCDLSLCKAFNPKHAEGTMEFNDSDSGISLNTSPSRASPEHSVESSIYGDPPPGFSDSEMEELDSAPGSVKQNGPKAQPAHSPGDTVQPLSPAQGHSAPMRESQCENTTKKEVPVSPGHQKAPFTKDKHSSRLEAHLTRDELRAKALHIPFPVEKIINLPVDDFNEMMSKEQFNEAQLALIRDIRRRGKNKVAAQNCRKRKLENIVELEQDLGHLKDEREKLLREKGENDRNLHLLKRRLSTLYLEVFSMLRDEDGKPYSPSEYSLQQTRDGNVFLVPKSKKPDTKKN

Activity [8]	Compound	pIC50 [1]	Activity [2]	Activity [3]	also measured
–	C=C1C(=O)OC(CCc2ccccc2)C1CCCC (mixture of isomers)	5.30	–	–	–
–	C=C1C(=O)OC(c2ccccc2)C1CCc1ccccc1 (mixture of isomers)	5.55	–	–	–
–	C=C1C(=O)O[C@@H](CCCCCCCCCCCCC)[C@@H]1C(=O)O [PROTOLICHESTERINIC ACID]	5.07	–	–	–
Active	C=C1C(=O)OC(c2ccccc2)C1CCCC (mixture of isomers)	5.11	inactive	inactive	pIC50 [4]: 4.90; Activity [5]: Active; Activity [6]: Active; Activity [7]: inactive; Activity [9]: inactive; Activity [10]: inactive; Activity [11]: Active
–	C=C1C(=O)OC(CCCC)C1CCc1ccccc1 (stereo unspecified)	5.26	–	–	–
Active	CN(CCOc1ccc(CC2SC(=O)NC2=O)cc1)c1ccccn1 (stereo unspecified)	–	inactive	inactive	–
–	C=C1CC(CCCCCCCCCCCCC)OC1=O (stereo unspecified)	5.41	–	–	–
–	C=C1C(=O)OC(CCCCCCCCCCCCC)C1CCc1ccccc1 (mixture of isomers)	5.48	–	–	–
–	C=C1C(=O)OC(c2ccccc2)C1c1ccccc1 (mixture of isomers)	5.20	–	–	–
–	C=C1CC(c2ccccc2)OC1=O (stereo unspecified)	5.17	–	–	–
Active	CCCCCCCCCCCCC[C@H]1OC(=O)C(C)=C1C(=O)O	4.14	inactive	inactive	pIC50 [4]: < 4.00
–	C=C1C(=O)OC(CCc2ccccc2)C1CCc1ccccc1 (stereo unspecified)	5.57	–	–	–
Active	C=C1CC(CCCC)OC1=O (stereo unspecified)	4.76	inactive	inactive	pIC50 [4]: 4.51; Activity [5]: Active; Activity [6]: Active; Activity [7]: inactive; Activity [9]: inactive; Activity [10]: inactive; Activity [11]: Active
–	C=C1C(=O)OC(CCCCCCCCCCCCC)C1CC (mixture of isomers)	5.39	–	–	–
Active	CCCCCCCCCCCCCC1C=C(C)C(=O)O1 (racemic)	< 4.00	inactive	inactive	pIC50 [4]: < 4.00
–	C=C1CC(CCc2ccccc2)OC1=O (stereo unspecified)	5.06	–	–	–
